# Assays:
# Type in all cases: cell-based
# [1] = test system: HEK293 clonal cell line overexpressing APOL1 G1; test: APOL1 G1 HEK293 cell rescue assay (Example B3); settings: geometric mean of at least 2 runs, † = single run, ¥ = concentration at 50% rescue estimated (no sigmoidal curve)
# Outline: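 HEK293 clonal line overexpressing APOL1 G1; EC50 is half-maximal reversal of APOL1-induced cell death. Values are the geometric mean of ≥2 runs on separate days, each run the average of duplicate wells. Where no sigmoidal curve could be fitted, the concentration giving 50% rescue was estimated.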
# [2] = test system: HEK293 cells overexpressing APOL1 G2; test: APOL1 G2 HEK293 cell rescue assay (reversal of cell death caused by overexpression of APOL1); settings: geometric mean of at least 2 assay runs, † = single assay run
# Outline: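 EC50 is the half-maximal effective concentration for reversing cell death driven by APOL1 G2 overexpression in HEK293 cells. Reported as geometric mean of at least 2 runs on separate days, each run averaging duplicate wells per plate; some values from a single run.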
# [3] = target: T1, APOL1 G2 (Homo sapiens, UniProt O14791, DEL388-389); test: APOL1-mediated calcium transport (calcium influx) assay, HEK T-REx/GCaMP6f/APOL1 G2 K6.3 cells, FLIPR TETRA; settings: prevention of calcium influx; geometric mean of at least 2 assay runs; † = average of a technical replicate from a single assay run
# T1 construct: expressed in transfected cells; host or cells: HEK293 T-REx clonal line stably expressing GCaMP6f (HEK T-REx/GCaMP6f/APOL1 G2 K6.3), doxycycline induced
# T1 sequence (O14791 with tags, fused parts or gaps DEL388-389): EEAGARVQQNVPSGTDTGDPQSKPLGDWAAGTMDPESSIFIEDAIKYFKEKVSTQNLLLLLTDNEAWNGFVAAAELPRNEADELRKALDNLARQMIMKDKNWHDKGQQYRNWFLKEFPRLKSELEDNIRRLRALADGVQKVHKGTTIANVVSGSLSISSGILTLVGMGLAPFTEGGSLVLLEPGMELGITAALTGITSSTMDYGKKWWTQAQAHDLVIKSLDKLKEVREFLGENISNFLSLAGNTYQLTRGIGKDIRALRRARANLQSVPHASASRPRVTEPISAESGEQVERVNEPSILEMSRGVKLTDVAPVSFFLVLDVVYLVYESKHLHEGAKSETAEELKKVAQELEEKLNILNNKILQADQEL
# Outline: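 A HEK293 T-REx clone stably expressing GCaMP6f had APOL1 G2 induced with doxycycline (20 ng/mL solution added) for 6 h. Cells were then washed into Ca2+-free Tyrode's buffer (pH 7.4) and preincubated with compounds (duplicate 8-point) for 10 min at room temperature. Ca2+ injection to 5 mM final produced FLIPR GCaMP fluorescence, giving AC50 for influx inhibition (geometric mean, ≥2 runs).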
# [4] = Homo sapiens, HEK293, HEK293 clonal line overexpressing APOL1 G1
# [5] = Homo sapiens, HEK293, HEK293 overexpressing APOL1 G2
# [6] = HEK293 clonal line overexpressing APOL1 G1
SMILES,"EC50 [1, 4] [µM]","EC50 [2, 5] [µM]",AC50 [3] [µM],"EC50 [1, 6] [µM]",EC50 ([2]; HEK293 overexpressing APOL1 G2) [µM]
"CN1C(=O)C2(CCN(CCOc3ccc(S(C)(=O)=O)cc3)CC2)c2ccccc21 [Compound 67, 1′-[2-(4-methanesulfonylphenoxy)ethyl]-1-methyl-1,2-dihydrospiro[indole-3,4′-piperidin]-2-one]",2.86,0.802,0.351,–,–
"CN1C(=O)Cc2cc(OCCN3CCC4(CC3)C(=O)N(C)c3ccccc34)ccc21 [Compound 33, 1-methyl-1′-{2-[(1-methyl-2-oxo-2,3-dihydro-1H-indol-5-yl)oxy]ethyl}-1,2-dihydrospiro[indole-3,4′-piperidin]-2-one]",> 3.47,1.07,0.218,–,–
"CC(COc1ccc2c(c1)CCC(=O)N2C)N1CCC2(CC1)C(=O)Nc1ccc(C#N)cc12 (single isomer, unassigned) [Compound 204, (R) or (S)-1′-{1-[(1-methyl-2-oxo-1,2,3,4-tetrahydroquinolin-6-yl)oxy]propan-2-yl}-2-oxo-1,2-dihydrospiro[indole-3,4′-piperidine]-5-carbonitrile]",–,–,0.869,1.27,1.55
"NC(=O)c1ccc(OCCN2CCC3(CC2)C(=O)Nc2ccc(Cl)cc23)cn1 [Compound 47, 5-(2-{5-chloro-2-oxo-1,2-dihydrospiro[indole-3,4′-piperidin]-1′-yl}ethoxy)pyridine-2-carboxamide]",0.399,0.148,0.641,–,–
"[2H]C([2H])(Oc1cc(C(F)(F)F)c2c(c1)ncn2[C@H]1C[C@@](C)(O)C1)C([2H])([2H])N1CCC2(CC1)C(=O)Nc1ccc(Cl)cc12 [Compound 463, 5-chloro-1′-[2-({1-[(cis)-3-hydroxy-3-methylcyclobutyl]-7-(trifluoromethyl)-1H-1,3-benzodiazol-5-yl}oxy)(1,1,2,2-^2H4)ethyl]-1,2-dihydrospiro[indole-3,4′-piperidin]-2-one]",0.0132,0.00584,2.84,–,–
"CN1C(=O)C2(CCN(CCOc3ccc(-c4cnn(C)c4)cc3)CC2)c2ccccc21 [Compound 31, 1-methyl-1′-{2-[4-(1-methyl-1H-pyrazol-4-yl)phenoxy]ethyl}-1,2-dihydrospiro[indole-3,4′-piperidin]-2-one]",1.57,0.81,0.37,–,–
"C[C@]1(O)C[C@@H](n2ncc3cc(OCCN4CCC5(CC4)C(=O)Nc4ccc(C#N)cc45)cnc32)C1 (single isomer, unassigned) [Compound 437, 2-oxo-1′-[2-({1-[(cis)-3-hydroxy-3-methylcyclobutyl]-1H-pyrazolo[3,4-b]pyridin-5-yl}oxy)ethyl]-1,2-dihydrospiro[indole-3,4′-piperidine]-5-carbonitrile]",0.186,0.112,0.612,–,–
"[2H]C([2H])([2H])N1C(=O)C2(CCN(CCOc3cnc4c(c3)CCC(=O)N4[C@H]3C[C@@H](O)C3)CC2)c2cc(Cl)ccc21 [Compound 423, 5-chloro-1-(^2H3)methyl-1′-[2-({7-oxo-8-[(cis)-3-hydroxycyclobutyl]-5,6,7,8-tetrahydro-1,8-naphthyridin-3-yl}oxy)ethyl]-1,2-dihydrospiro[indole-3,4′-piperidin]-2-one]",0.116,0.0593,0.284,–,–
"N#Cc1ccc2c(c1)C1(CCN(CCOc3ccc4c(c3)CCN3C(=O)CCC43)CC1)C(=O)N2 (single isomer, unassigned) [Compound 126, (R) or (S)-2-oxo-1′-[2-({3-oxo-1H,2H,3H,5H,6H,10bH-pyrrolo[2,1-a]isoquinolin-8-yl}oxy)ethyl]-1,2-dihydrospiro[indole-3,4′-piperidine]-5-carbonitrile]",–,–,0.624,1.01,0.273
"N#Cc1ccc2c(c1)C1(CCN(CCOc3ccc(C4CCCS4(=O)=O)cc3)CC1)C(=O)N2 (stereo not drawn) [Compound 178, 1′-{2-[4-(1,1-dioxo-1λ^6-thiolan-2-yl)phenoxy]ethyl}-2-oxo-1,2-dihydrospiro[indole-3,4′-piperidine]-5-carbonitrile]",1.19,0.256,0.55,–,–
"[2H]C([2H])([2H])N1C(=O)C2(CCN(CCOc3ccc4c(c3)CN(C)C4=O)CC2)c2cc(Cl)ccc21 [Compound 416, 5-chloro-1-(^2H3)methyl-1′-{2-[(2-methyl-1-oxo-2,3-dihydro-1H-isoindol-5-yl)oxy]ethyl}-1,2-dihydrospiro[indole-3,4′-piperidin]-2-one]",0.382,0.169,0.449,–,–
"C[C@]1(O)C[C@@H](N2C(=O)NCc3cc(OCCN4CCC5(CC4)C(=O)Nc4ccc(Cl)cc45)cc(C(F)(F)F)c32)C1 [Compound 456, 5-chloro-1′-[2-({2-oxo-1-[(cis)-3-hydroxy-3-methylcyclobutyl]-8-(trifluoromethyl)-1,2,3,4-tetrahydroquinazolin-6-yl}oxy)ethyl]-1,2-dihydrospiro[indole-3,4′-piperidin]-2-one]",0.0982,0.0282,1.01,–,–
"CC(c1ccc(OCCN2CCC3(CC2)C(=O)Nc2ccc(Cl)cc23)cc1)S(C)(=O)=O (stereo not drawn) [Compound 38, 5-chloro-1′-{2-[4-(1-methanesulfonylethyl)phenoxy]ethyl}-1,2-dihydrospiro[indole-3,4′-piperidin]-2-one]",0.222,0.059,0.307,–,–
"C[C@@H](CN1CCC2(CC1)C(=O)Nc1ccc(Cl)cc12)Oc1ccc(S(C)(=O)=O)cc1 (single isomer, unassigned) [Compound 11]",2.3,1.7,1.05,–,–
"N#Cc1ccc2c(c1)C1(CCN(CCOc3ccc4c(c3)CCN3C(=O)NCC43)CC1)C(=O)N2 (stereo not drawn) [Compound 118, 2-oxo-1′-[2-({3-oxo-1H,2H,3H,5H,6H,10bH-imidazo[4,3-a]isoquinolin-8-yl}oxy)ethyl]-1,2-dihydrospiro[indole-3,4′-piperidine]-5-carbonitrile]",~2.1,0.431,1.04,–,–
"O=C1CCC2c3ccc(OCCN4CCC5(CC4)C(=O)Nc4ccc(Cl)cc45)cc3CCN12 (stereo not drawn) [Compound 121, 5-chloro-1′-[2-({3-oxo-1H,2H,3H,5H,6H,10bH-pyrrolo[2,1-a]isoquinolin-8-yl}oxy)ethyl]-1,2-dihydrospiro[indole-3,4′-piperidin]-2-one]",0.249,0.0812,0.508,–,–
"CS(=O)(=O)C1(c2ccc(OCCN3CCC4(CC3)C(=O)Nc3ccc(C#N)cc34)cc2)CC2(COC2)C1 [Compound 183, 1′-[2-(4-{6-methanesulfonyl-2-oxaspiro[3.3]heptan-6-yl}phenoxy)ethyl]-2-oxo-1,2-dihydrospiro[indole-3,4′-piperidine]-5-carbonitrile]",~5.8,0.702,1.52,–,–
"CS(=O)(=O)c1ccc(OCCN2CCC3(CC2)C(=O)Nc2ccc(Cl)cc23)c(F)c1 [Compound 48, 5-chloro-1′-[2-(2-fluoro-4-methanesulfonylphenoxy)ethyl]-1,2-dihydrospiro[indole-3,4′-piperidin]-2-one]",0.445,0.199,0.567,–,–
"CC(=O)N1CCCc2cc(OCCN3CCC4(CC3)C(=O)Nc3ccc(C#N)cc34)ccc21 [Compound 59, 1′-{2-[(1-acetyl-1,2,3,4-tetrahydroquinolin-6-yl)oxy]ethyl}-2-oxo-1,2-dihydrospiro[indole-3,4′-piperidine]-5-carbonitrile]",0.422,0.213,0.879,–,–
"CS(=O)(=O)c1ccc(OCCN2CCC3(CC2)C(=O)Nc2ccc(C#N)cc23)cc1F [Compound 74, 1′-[2-(3-fluoro-4-methanesulfonylphenoxy)ethyl]-2-oxo-1,2-dihydrospiro[indole-3,4′-piperidine]-5-carbonitrile]",0.471,0.167,0.781,–,–
"[2H]C([2H])([2H])N1C(=O)C2(CCN(CCOc3cnc4c(c3)CCC(=O)N4[C@H]3C[C@@](C)(O)C3)CC2)c2cc(Cl)ccc21 [Compound 419, 5-chloro-1-(^2H3)methyl-1′-[2-({7-oxo-8-[(1r,3s)-3-hydroxy-3-methylcyclobutyl]-5,6,7,8-tetrahydro-1,8-naphthyridin-3-yl}oxy)ethyl]-1,2-dihydrospiro[indole-3,4′-piperidin]-2-one]",0.108,0.0309,0.383,–,–

# — patent US12344610B2, “APOL1 inhibitors and methods of use” (Maze Therapeutics, Inc., priority 2022, dated 2025)
